Data on 15 compounds can be found in US8017637B2, “Inhibitors of cdc phosphatases” (Ipsen Pharma S.A.S., priority 2004, dated 2011).

The test system of data set [1] is Mia-Paca2 lines (human pancreatic cancer cells). Description: Anti-proliferative activity, WST1 colorimetric test, Mia-Paca2 cells. The data set is classed as cell-based. The note with it: MIA PaCa-2, 96 hours treatment, up to 10 μM, read-out: IC50 on the cell proliferation of the Mia-Paca2 lines. How it is done:
(§1) ii) Characterization of Anti-Proliferative Activity:
(§2) By way of example, the effect of a treatment by the compounds of the examples described previously on two lines of human Mia-Paca2 and DU145 cells will be studied. The cell lines DU145 (human prostate cancer cells) and Mia-PaCa2 (human pancreatic cancer cells) were acquired from the American Tissue Culture Collection (Rockville, Md., USA). The cells placed in 80 μl of Dulbecco's Modified Eagle medium (Gibco-Brl, Cergy-Pontoise, France) completed with 10% foetal calf serum inactivated by heating (Gibco-Brl, Cergy-Pontoise, France), 50,000 units/l of penicillin and 50 mg/l streptomycin (Gibco-Brl, Cergy-Pontoise, France), and 2 mM of glutamine (Gibco-Brl, Cergy-Pontoise, France) were seeded on a 96-well plate on day 0. The cells were treated on day 1 for 96 hours at increasing concentrations of each of the compounds to be tested up to 10 μM. At the end of the of this period, quantification of the cell proliferation is evaluated by a colorimetric test based on the cleavage of the tetrazolium salt WST1 by the mitochondrial dehydrogenases in the viable cells leading to the formation of formazan (Boehringer Mannheim, Meylan, France). These tests are carried out in duplicate with 8 determinations per concentration tested. For each compound to be tested, the values included in the linear part of the sigmoid were retained for linear regression analysis and used in order to estimate the inhibitory concentration IC50. The products are solubilized in dimethylsulphoxide (DMSO) at to 10^−2M and finally used in culture with 0.1% DMSO.
(In general: Tetrazolium dyes change colour on reduction, which living cells bring about.)

In data set [2] the test system is DU-145 lines (human prostate cancer cells). Description: Anti-proliferative activity, WST1 colorimetric test, DU145 cells. Conditions: 96 hours treatment, up to 10 μM, read-out: IC50 on the cell proliferation of the DU-145 lines. The class given is cell-based. As to the method: as §1, §2
The target of data set [3] is T1, purified recombinant enzyme Cdc25-C (MBP-Cdc25C) (Homo sapiens, UniProt P30307).
T1 construct: made in house
T1 sequence (P30307 1-473): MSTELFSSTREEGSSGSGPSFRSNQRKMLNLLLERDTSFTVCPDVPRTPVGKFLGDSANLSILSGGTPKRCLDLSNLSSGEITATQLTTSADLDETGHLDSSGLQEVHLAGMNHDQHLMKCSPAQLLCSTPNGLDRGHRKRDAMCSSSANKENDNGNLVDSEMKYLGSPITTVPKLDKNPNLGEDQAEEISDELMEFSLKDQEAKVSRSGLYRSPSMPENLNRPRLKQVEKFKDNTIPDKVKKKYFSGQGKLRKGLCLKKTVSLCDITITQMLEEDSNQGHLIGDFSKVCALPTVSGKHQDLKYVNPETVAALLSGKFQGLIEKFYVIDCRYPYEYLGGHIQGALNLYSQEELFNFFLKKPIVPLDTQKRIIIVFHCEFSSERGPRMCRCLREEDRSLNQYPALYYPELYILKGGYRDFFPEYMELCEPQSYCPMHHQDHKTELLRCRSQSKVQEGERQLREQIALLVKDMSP
Description: Measurement of the phosphatase activity of the purified recombinant enzyme Cdc25C (OMFP dephosphorylation, fluorescence). The class given is biochemical. Conditions: OMFP 500 μM, 4 hours at 30° C. As to the method: i) Measurement of the Phosphatase Activity of the Purified Recombinant Enzyme Cdc25C
The phosphatase activity of the protein MBP-Cdc25C is evaluated by the dephosphorylation of 3-O-methylfluorescein-phosphate (OMFP) to 3-O-methylfluorescein (OMF) with a determination of the fluorescence at 475 nm of the reaction product. This test makes it possible to identify inhibitors of the recombinant enzyme cdc25. The preparation of the fusion protein MBP-Cdc25C is described in the Patent Application PCT WO 01/44467.
The reaction is carried out in 384-well plate format at a final volume of 50 μl. The protein MBP-Cdc25C (prepared as described above) is preserved in the following elution buffer: 20 mM Tris-HCl pH 7.4; 250 mM NaCl; 1 mM EDTA; 1 mM of dithiothreitol (DTT); 10 mM maltose. It is diluted to a concentration of 60 μM in the following reaction buffer: 50 mM Tris-HCl pH 8.2; 50 mM NaCl; 1 mM DTT; 20% glycerol. Measurement of the background noise is carried out with the buffer without the addition of the enzyme. The products are tested at decreasing concentrations starting from 40 μM. The reaction is initiated by the addition of an OMFP solution at 500 μM final (prepared extemporaneously from a 12.5 mM stock solution in 100% DMSO (Sigma #M2629)). After 4 hours at 30° C. in a single-use 384-well plate, the fluorescence measured at OD 475 nm is read using a Victor^2 plate reader (EGG-Wallac). The determination of the concentration inhibiting the enzyme reaction by 50% is calculated from three independent experiments. Only the values contained in the linear part of the sigmoid are retained for linear regression analysis.

For the compound `Cc1nc2c(s1)C(=O)C(NCCCN(C)CCCNC1=CC(=O)c3nc(C)sc3C1=O)=CC2=O` [Example 5, 6.6′-[(methylimino)bis(propane-3,1-diylimino)]bis(2-methyl-1,3-benzothiazole-4,7-dione)], the melting point (in general, the temperature of the solid-liquid transition) is 91 to 93 °C. For the same compound, the IC50 in data set [1] is not above 10 µM. Further, the IC50 in data set [2] is not above 10 µM. The IC50 in data set [3] is not above 1 µM.
On to `CN(CCCNC1=CC(=O)c2sc(C(=O)NCCCN3CCCC3=O)nc2C1=O)CCCNC1=CC(=O)c2sc(C(=O)NCCCN3CCCC3=O)nc2C1=O` [Example 7, 5.5′-[(methylimino)bis(propane-3,1-diylimino)]bis{4,7-dioxo-N-[3-(2-oxopyrrolidin-1-yl)propyl]-4,7-dihydro-1,3-benzothiazole-2-carboxamide}], for which the melting point was 185 to 186 °C. Also, the IC50 in data set [1] is not above 10 µM. For the same compound, the IC50 in data set [2] was not above 10 µM. Besides, the IC50 in data set [3] was not above 1 µM.
`CN(CCCNC1=CC(=O)c2nc(-c3cc(F)ccc3F)oc2C1=O)CCCNC1=CC(=O)c2nc(-c3cc(F)ccc3F)oc2C1=O` [Example 8, 6.6′-[(methylimino)bis(propane-3,1-diylimino)]-bis[2-(2,5-difluorophenyl)-1,3-benzoxazole-4,7-dione]] returned a melting point of 209 to 210 °C. In data set [1], the IC50 is not above 10 µM. In addition, the IC50 in data set [2] is not above 10 µM. Further, the IC50 in data set [3] is not above 1 µM.
In the case of `CN(CCCNC1=CC(=O)c2nc(Cc3c(F)cccc3Cl)oc2C1=O)CCCNC1=CC(=O)c2nc(Cc3c(F)cccc3Cl)oc2C1=O` [Example 10, 6.6′-[(methylimino)bis(propane-3,1-diylimino)]bis[2-(2-chloro-6-fluorobenzyl)-1,3-benzoxazole-4,7-dione]], the melting point lay within 165 to 167 °C. Moreover, the IC50 in data set [1] was not above 10 µM. The IC50 in data set [2] was not above 10 µM. The IC50 in data set [3] is not above 1 µM.
In turn, `CN(CCCNC1=CC(=O)c2nc(-c3cccc(Br)c3)oc2C1=O)CCCNC1=CC(=O)c2nc(-c3cccc(Br)c3)oc2C1=O` [Example 11, 6.6′-[(methylimino)bis(propane-3,1-diylimino)]-bis[2-(3-bromophenyl)-1,3-benzoxazole-4,7-dione]] returned a melting point of 199 to 200 °C. The IC50 in data set [1] was not above 10 µM. Besides, in data set [2], the IC50 was not above 10 µM. Moreover, the IC50 in data set [3] was not above 5 µM.
Turning to `CN(CCCNC1=CC(=O)c2nc(-c3cccc(Cl)c3)oc2C1=O)CCCNC1=CC(=O)c2nc(-c3cccc(Cl)c3)oc2C1=O` [Example 14, 6.6′-[(methylimino)bis(propane-3,1-diylimino)]-bis[2-(3-chlorophenyl)-1,3-benzoxazole-4,7-dione]], the melting point lay in the range of 196 to 197 °C. Further, in data set [1], the IC50 was not above 10 µM. The IC50 in data set [2] was not above 10 µM. Moreover, the IC50 in data set [3] is not above 1 µM.
Compound `CN(CCCNC1=CC(=O)c2nc(-c3ccc(F)cc3)oc2C1=O)CCCNC1=CC(=O)c2nc(-c3ccc(F)cc3)oc2C1=O` [Example 15, 6.6′-[(methylimino)bis(propane-3,1-diylimino)]-bis[2-(4-fluorophenyl)-1,3-benzoxazole-4,7-dione]] had a melting point of 204 to 205 °C. The IC50 in data set [1] is not above 10 µM. Also, in data set [2], the IC50 was not above 10 µM. Further, the IC50 in data set [3] is not above 1 µM.
In turn, `Cc1nc2c(s1)C(=O)C=C(NCCCN(CCCNC1=CC(=O)c3sc(C)nc3C1=O)CCCNC1=CC(=O)c3sc(C)nc3C1=O)C2=O` [Example 18] came in with a melting point of 131 to 132 °C. Also, the IC50 in data set [1] was not above 10 µM. Moreover, the IC50 in data set [2] was not above 10 µM. The IC50 in data set [3] was not above 1 µM.
Compound `Cc1nc2c(s1)C(=O)C=C(NCC1CCC(CNC3=CC(=O)c4sc(C)nc4C3=O)CC1)C2=O` (stereo not drawn) [Example 20, 5.5′-[cyclohexane-1,4-diylbis(methyleneimino)]bis(2-methyl-1,3-benzothiazole-4,7-dione)] registered a melting point of more than 240 °C. In addition, the IC50 in data set [1] is not above 10 µM. Moreover, the IC50 in data set [2] was not above 10 µM. Besides, the IC50 in data set [3] was not above 1 µM.
`CN(CCCNC1=CC(=O)c2scnc2C1=O)CCCNC1=CC(=O)c2scnc2C1=O` [Example 25, 5.5′-[(methylimino)bis(propane-3,1-diylimino)]bis(1,3-benzothiazole-4,7-dione)] had a melting point of 223 to 224 °C. In data set [1], the IC50 is not above 10 µM. Further, the IC50 in data set [2] was not above 10 µM. Moreover, in data set [3], the IC50 was not above 1 µM.
As for `CN(CCCNC1=CC(=O)c2sc(C(=O)N3CCOCC3)nc2C1=O)CCCNC1=CC(=O)c2sc(C(=O)N3CCOCC3)nc2C1=O` [Example 26, 5.5′-[(methylimino)bis(propane-3,1-diylimino)]bis[2-(morpholin-4-ylcarbonyl)-1,3-benzothiazole-4,7-dione]], the melting point lay within 207 to 208 °C. The IC50 in data set [1] was not above 10 µM. Moreover, in data set [2], the IC50 was not above 10 µM. The IC50 in data set [3] is not above 1 µM.
`CN(CCCNC1=CC(=O)c2nc(C(=O)N3CCCC3)sc2C1=O)CCCNC1=CC(=O)c2nc(C(=O)N3CCCC3)sc2C1=O` [Example 31, 6.6′-[(methylimino)bis(propane-3,1-diylimino)]bis[2-(pyrrolidin-1-ylcarbonyl)-1,3-benzothiazole-4,7-dione]]: the melting point lay in the range of 237 to 238 °C. Moreover, in data set [1], the IC50 is not above 10 µM. The IC50 in data set [2] was not above 10 µM. Also, the IC50 in data set [3] is not above 1 µM.
The compound `CN(CCCNC1=CC(=O)c2sc(C(=O)Nc3ccc(F)cc3)nc2C1=O)CCCNC1=CC(=O)c2sc(C(=O)Nc3ccc(F)cc3)nc2C1=O` [Example 32, 5.5′-[(methylimino)bis(propane-3,1-diylimino)]bis[N-(4-fluorophenyl)-4,7-dioxo-4,7-dihydro-1,3-benzothiazole-2-carboxamide]] yielded a melting point of 262 to 263 °C. Moreover, the IC50 in data set [1] was not above 10 µM. Also, in data set [2], the IC50 is not above 10 µM. In data set [3], the IC50 was not above 1 µM.
On to `COc1ccc(CNC(=O)c2nc3c(s2)C(=O)C=C(NCCCN(C)CCCNC2=CC(=O)c4sc(C(=O)NCc5ccc(OC)cc5)nc4C2=O)C3=O)cc1` [Example 33, 5.5′-[(methylimino)bis(propane-3,1-diylimino)]bis[N-(4-methoxybenzyl)-4,7-dioxo-4,7-dihydro-1,3-benzothiazole-2-carboxamide]], for which the melting point was in the range of 174 to 175 °C. Besides, in data set [1], the IC50 is not above 10 µM. Besides, in data set [2], the IC50 is not above 10 µM. For the same compound, in data set [3], the IC50 was not above 1 µM.
The compound `CN(CCCNC1=CC(=O)c2sc(C(=O)NC3CCCCC3)nc2C1=O)CCCNC1=CC(=O)c2sc(C(=O)NC3CCCCC3)nc2C1=O` [Example 35, 5.5′-[(methylimino)bis(propane-3,1-diylimino)]bis(N-cyclohexyl-4,7-dioxo-4,7-dihydro-1,3-benzothiazole-2-carboxamide)] displayed a melting point of 145 to 146 °C. The IC50 in data set [1] is not above 10 µM. Moreover, the IC50 in data set [2] is not above 10 µM. In addition, in data set [3], the IC50 was not above 1 µM.
